The record followed here is paper PMC3859510 (PLoS ONE, 2013).

Read-outs that look alike come from different tables or passages of the source.

Data set [1] can be described thus: Cytostatic assay (MTS/PMS) in Huh 7.5.1 cells. Type of data set: cell-based. The following applies: human. As for the experimental part:
(§1) Cells were seeded at a density of 5×10^3 or 7.2×10^3 cells per well in a 96-well plate in complete DMEM in serial dilutions of the test compounds for Huh 5-2 and Huh 7.5.1 cells, respectively. After three days of incubation, cell viability was determined by MTS/PMS method (Promega).

For data set [2], the system named is HCV replicons I389luc-ubi-neo/NS3-3′/5.1 (Huh 5-2), genotype 1b subgenomic replicon. The data set can be described thus: Antiviral assay in HCV replicon cells (Huh 5-2, firefly luciferase). Type of data set: cell-based, hepatitis C virus (HCV). The following applies: for EC50: Hepatitis C virus, read-out: EC50 (50% effective concentration), HCV replicon replication, Huh 5-2 subgenomic replicon (genotype 1b), firefly luciferase, mean ± SD, four independent experiments; for fold-change of EC50 with Hemin (5 µM) (value between brackets): Huh 5-2 replicon, potentiation by Hemin 5 µM. As to the method: Cells carrying HCV replicons I389luc-ubi-neo/NS3-3′/5.1 (Huh 5-2) were kindly provided by Prof. R. Bartenschlager (University of Heidelberg, Germany). Cells were cultured in Dulbecco’s modified Eagle’s Medium (DMEM, Gibco, Merelbeke, Belgium) supplemented with 10% heat-inactivated fetal bovine serum (Integro, Zaandam, The Netherlands), 1× non-essential amino acids, 100 IU/mL penicillin (Gibco), 100 µg/mL streptomycin (Gibco), and 250 µg/mL G418. Cell cultures were maintained at 37°C with 5% CO2.
(§2) The antiviral assay was performed as described, [22]. Briefly, cells were seeded at a density of 5×10^3 cells per well in 96-well cell culture plates in DMEM containing 250 µg/mL G418 at 37°C (5% CO2). After 24 hours of incubation, medium was replaced with fresh DMEM (without G418) and serial dilutions of the test compounds. Replicon RNA levels were determined by a quantitative reverse transcription polymerase chain reaction (qRT-PCR) or quantified by measuring the firefly luciferase activity in 96-well cell culture plates (Safire, Tecan, Austria).
A general note: Replicon systems follow genome replication, usually without infectious particles.

Data set [3] has as its system infectious HCV JFH-1/CS-N6 in Huh 7.5.1 cells. The data set can be described thus: microbe, parasite or virus in culture. Type of data set: cell-based, hepatitis C virus (HCV). Particulars: for EC50: 3 days, qRT-PCR, mean ± SD, four independent experiments; for SI: HCVcc system, CC50/EC50. As to the method: The highly infectious HCV JFH-1/CS-N6 described by Delgrange et al was used for the antiviral assays. A total of 7.2×10^3 Huh 7.5.1 cells per well of a 96-well cell culture plate were incubated with the virus at specific infectivity of about 400 (400 HCV RNA copies per foci-forming unit) and at the same time with serial dilutions of compounds. Following 3 days of incubation, medium was removed and cells were washed once and lysed to extract the intracellular RNA with the RNeasy kit (Qiagen). HCV RNA was quantified by means of qRT-PCR [25].
A qRT-PCR mixture contained: cellular RNA extract, HCV JFH-1 forward primer SF-JFH86 [5′-[…]-3′], reverse primer SR-JFH194 [5′-[…]-3′], and probe [5′-FAM-[…]-TAMRA-3′], was performed at 50°C for 30 min, subsequent 15 min at 95°C and PCR amplification of 40 cycles of denaturation at 94°C for 20 s and annealing and extension at 60°C for 1 min in an ABI 7500 Taqman (Live Technologies).
On the technique in general: Real-time PCR tracks product formation cycle by cycle.

Data set [4] in a line: Cytostatic assay (MTS/PMS) in Huh 5-2 cells. The format is cell-based. Particulars: human, three days. As to the method:
as §1

Data set [5] relates to Huh 7.5.1 cells. The data set can be described thus: Cytostatic assay (MTS/PMS) in Huh 7.5.1 cells. Type of data set: cell-based. As for the experimental part:
as §1

Data set [6] relates to HCV replicon in Huh 5-2 cells. The data set can be described thus: Drug combination studies (checker-board, Prichard and Shipman) in the HCV replicon system. The format is cell-based, hepatitis C virus (HCV). Particulars: Figure S2. As for the experimental part:
as §2
The effects of drug combinations were evaluated in a checker-board format using the method of Prichard and Shipman. The theoretical additive effect was calculated from the dose–response curves of individual compounds by the equation Z = X+Y(1−X), where X represents the inhibition produced by first compound alone and Y the inhibition by the second compound alone. Z represents the effect produced by the combination of the first with the second compound. The theoretical additive surface is subtracted from the actual experimental surface, resulting in a horizontal surface that equals the zero plane when the combination is additive. A surface that lies above the zero plane indicates a synergistic effect of the combination, and a surface below the zero plane indicates an antagonism. […]

Setting [7] is: Huh 7.5.1 hepatoma cells, three days, MTS/PMS.
Where [8] appears, read: Hepatitis C virus, Huh-7.5.1, 72 h, read-out: EC50 (50% effective concentration), replication of HCVcc, infectious HCV JFH-1 in Huh 7.5.1.
Setting [9] is: read-out: EC50 (50% effective concentration), replication of HCVcc, infectious HCV JFH-1 in Huh 7.5.1.

Broadly, the CC50 is the concentration at which the toxic effect on the cells reaches its halfway point. The molecule `C[C@H]1[C@@H](O)O[C@@H]2O[C@@]3(C)CC[C@H]4[C@H](C)CC[C@@H]1[C@@]24OO3` [Dihydroartemisinin] displayed a CC50 at 3 days in data set [1] (setting [7]) of less than 6 µM.
In the case of `CC1(C)CCCC(C)(C)N1[O]` [TEMPO, 2,2,6,6-tetramethyl-1-piperidinyloxy, reference compound], in data set [2] (HCV replicon system, concentrations up to 200 µM), the “effect of TEMPO alone on the replication of HCV” value is recorded as “no effect”.
Consider `CC(=O)OC1OC2OC3(C)CCC4C(C)CCC(C1C)C24OO3` (centres unmarked) [TVN2], for which the EC50 is greater than 70 µM in data set [3] (setting [8]) and 25 ± 13 µM in data set [2]. Further, the “fold-change of EC50 with Hemin (5 µM) (value between brackets)” value (“fold-change of EC50 with Hemin (5 µM)” below) in data set [2] is on record as “+4 fold”. For the same molecule, the midpoint of cytotoxicity in data set [4], the CC50 at 3 days, lay at 36 ± 7 µM.
`CO[C@H]1O[C@@H]2O[C@@]3(C)CC[C@H]4[C@H](C)CC[C@@H]([C@H]1C)[C@@]24OO3` [Artemether] came in with a cytotoxic concentration (CC50) at 3 days in data set [1] (setting [7]) of less than 6 µM.
Turning to Hemin [reference compound], in data set [5] (Hemin alone), the “concentration not toxic to Huh 7.5.1” value is reported as greater than 50 µM. Moreover, the EC50 in data set [3] (setting [9]) was 8 ± 0.6 µM.
On to `C[C@@H]1CC[C@H]2[C@@H](C)C(=O)O[C@@H]3O[C@@]4(C)CC[C@@H]1[C@]32OO4` [ART, Artemisinin, reference compound], for which the “host cell proliferation and cell viability at the highest concentration tested” value in data set [5] (400 µM, HCVcc system cells) was “not affected”. Also, the CC50 at 3 days in data set [1] (setting [7]) and in data set [4] was greater than 400 µM throughout. The molecule also came in with an SI in data set [3] greater than 2. The “potentiation of antiviral activity by Hemin in the HCVcc system” value in data set [3] (Hemin at 5 µM) is 2 fold. Moreover, the EC50 was 167 ± 38 µM in data set [3] (setting [8]) and 75 ± 7 µM in data set [2]. For the same molecule, the “fold-change of EC50 with Hemin (5 µM)” value in data set [2] is recorded as 8 fold. Also, the “effect of the combination with TEMPO” value in data set [6] is “marginaly antagonistic effect”.
Consider `C[C@@H]1CCC2[C@@H](C)[C@H](OCc3ccc(C=O)cc3)OC3O[C@@]4(C)CCC1[C@]32OO4` (some centres unmarked) [AJ-002], for which the CC50 at 3 days in data set [1] (setting [7]) and in data set [4] was greater than 133 µM each time. Further, in data set [3], the SI was greater than 8. Further, the EC50 in data set [3] (setting [8]) worked out at 15 ± 2 µM; in data set [2], 30 ± 8 µM. In addition, the “fold-change of EC50 with Hemin (5 µM)” value in data set [2] is 15 fold.
In the case of `C[C@@H]1CCC2[C@@H](C)[C@H](OCc3ccc(CO)cc3)OC3O[C@@]4(C)CCC1[C@]32OO4` (some centres unmarked) [AJ-001], the CC50 at 3 days in data set [1] (setting [7]) and in data set [4] was greater than 133 µM each time. The SI in data set [3] was greater than 5. The EC50 in data set [3] (setting [8]) turned out to be 26 ± 5 µM; in data set [2], 8.8 ± 2.7 µM. Moreover, the “fold-change of EC50 with Hemin (5 µM)” value in data set [2] amounted to 2 fold.
For `CC1CCC2C(C)C(OC(=O)c3ccccc3)OC3OC4(C)CCC1C32OO4` (centres unmarked) [TVN6], the EC50 in data set [3] (setting [8]) was greater than 70 µM; in data set [2], 3.6 ± 2.3 µM. The same molecule displayed a CC50 at 3 days in data set [4] of 40 ± 20 µM.
Take `C=COC1OC2OC3(C)CCC4C(C)CCC(C1C)C24OO3` (centres unmarked) [TVN4]: the CC50 at 3 days in data set [1] (setting [7]) is greater than 133 µM; in data set [4], 123 ± 14 µM. The SI in data set [3] is recorded as greater than 2. Further, the EC50 in data set [3] (setting [8]) came out at 59 ± 6 µM; in data set [3] (setting [9]) it was 52 ± 6 µM; in data set [2], 36 ± 16 µM. The “fold-change of EC50 with Hemin (5 µM)” value in data set [2] was “+2 fold”. Further, the “effect of the combination with TEMPO” value in data set [6] is “marginaly antagonistic effect”.
`C[C@H]1[C@H](OC(=O)CCC(=O)O)O[C@@H]2O[C@@]3(C)CC[C@H]4[C@H](C)CC[C@@H]1[C@@]24OO3` [Artesunate]: in data set [1] (setting [7]), the CC50 at 3 days was less than 6 µM.
For the molecule `CC1CCC2C(C)C(OCc3ccc(COC4OC5OC6(C)CCC7C(C)CCC(C4C)C57OO6)cc3)OC3OC4(C)CCC1C32OO4` (centres unmarked) [AJ-004], the CC50 at 3 days in data set [1] (setting [7]) and in data set [4] was greater than 133 µM each time. This molecule also displayed an SI in data set [3] greater than 8. Besides, the EC50 in data set [3] (setting [8]) turned out to be 16 ± 4 µM; in data set [2] it was 3.2 ± 2.4 µM. In data set [2] (subgenomic replicon system), the “fold more efficient in inhibiting HCV replicon replication compared to the monomer AJ-001” value is listed as roughly 3 fold. Moreover, the “fold more potent than the monomer AJ-002” value in data set [2] (subgenomic replicon system) is roughly 10 fold.
Consider `CCC[C@H](NC(=O)[C@@H]1[C@H]2CCC[C@H]2CN1C(=O)[C@@H](NC(=O)[C@@H](NC(=O)c1cnccn1)C1CCCCC1)C(C)(C)C)C(=O)C(=O)NC1CC1` [VX-950, reference compound], for which the CC50 at 3 days in data set [1] was greater than 10 µM. Besides, the SI in data set [3] was greater than 50. In data set [3] (setting [8]), the EC50 worked out at 0.2 ± 0.1 µM.
For the molecule `CC(=O)N[C@@H](CS)C(=O)O` [L-NAC, L-N-acetylcysteine, reference compound], in data set [3] (L-NAC alone at the concentration tested, printed as HCVcc replication), the “HCV RNA replication with L-NAC alone” value is given as 98 % of UTC.
